The source of these data is publication PMC9145196, “The Antileukemic and Anti-Prostatic Effect of Aeroplysinin-1 Is Mediated through ROS-Induced Apoptosis via NOX Activation and Inhibition of HIF-1a Activity” (Life, 2022).

In one assay the target is T1, topo IIα (Homo sapiens, UniProt P11388).
T1 construct: gene TOP2A
The assay can be described thus: cell-free topo II relaxation assay of supercoiled pHOT1 plasmid DNA. The format is biochemical.

The target in the next assay is T2, Hsp90 (Homo sapiens, UniProt P07900).
T2 construct: gene HSP90AA1; HSP90 recombinant protein
The assay can be described thus: protein thermal shift assay (Sypro Orange), Tm increase at […] Apl-1. The class given is binding.

T1 sequence (P11388 whole entry): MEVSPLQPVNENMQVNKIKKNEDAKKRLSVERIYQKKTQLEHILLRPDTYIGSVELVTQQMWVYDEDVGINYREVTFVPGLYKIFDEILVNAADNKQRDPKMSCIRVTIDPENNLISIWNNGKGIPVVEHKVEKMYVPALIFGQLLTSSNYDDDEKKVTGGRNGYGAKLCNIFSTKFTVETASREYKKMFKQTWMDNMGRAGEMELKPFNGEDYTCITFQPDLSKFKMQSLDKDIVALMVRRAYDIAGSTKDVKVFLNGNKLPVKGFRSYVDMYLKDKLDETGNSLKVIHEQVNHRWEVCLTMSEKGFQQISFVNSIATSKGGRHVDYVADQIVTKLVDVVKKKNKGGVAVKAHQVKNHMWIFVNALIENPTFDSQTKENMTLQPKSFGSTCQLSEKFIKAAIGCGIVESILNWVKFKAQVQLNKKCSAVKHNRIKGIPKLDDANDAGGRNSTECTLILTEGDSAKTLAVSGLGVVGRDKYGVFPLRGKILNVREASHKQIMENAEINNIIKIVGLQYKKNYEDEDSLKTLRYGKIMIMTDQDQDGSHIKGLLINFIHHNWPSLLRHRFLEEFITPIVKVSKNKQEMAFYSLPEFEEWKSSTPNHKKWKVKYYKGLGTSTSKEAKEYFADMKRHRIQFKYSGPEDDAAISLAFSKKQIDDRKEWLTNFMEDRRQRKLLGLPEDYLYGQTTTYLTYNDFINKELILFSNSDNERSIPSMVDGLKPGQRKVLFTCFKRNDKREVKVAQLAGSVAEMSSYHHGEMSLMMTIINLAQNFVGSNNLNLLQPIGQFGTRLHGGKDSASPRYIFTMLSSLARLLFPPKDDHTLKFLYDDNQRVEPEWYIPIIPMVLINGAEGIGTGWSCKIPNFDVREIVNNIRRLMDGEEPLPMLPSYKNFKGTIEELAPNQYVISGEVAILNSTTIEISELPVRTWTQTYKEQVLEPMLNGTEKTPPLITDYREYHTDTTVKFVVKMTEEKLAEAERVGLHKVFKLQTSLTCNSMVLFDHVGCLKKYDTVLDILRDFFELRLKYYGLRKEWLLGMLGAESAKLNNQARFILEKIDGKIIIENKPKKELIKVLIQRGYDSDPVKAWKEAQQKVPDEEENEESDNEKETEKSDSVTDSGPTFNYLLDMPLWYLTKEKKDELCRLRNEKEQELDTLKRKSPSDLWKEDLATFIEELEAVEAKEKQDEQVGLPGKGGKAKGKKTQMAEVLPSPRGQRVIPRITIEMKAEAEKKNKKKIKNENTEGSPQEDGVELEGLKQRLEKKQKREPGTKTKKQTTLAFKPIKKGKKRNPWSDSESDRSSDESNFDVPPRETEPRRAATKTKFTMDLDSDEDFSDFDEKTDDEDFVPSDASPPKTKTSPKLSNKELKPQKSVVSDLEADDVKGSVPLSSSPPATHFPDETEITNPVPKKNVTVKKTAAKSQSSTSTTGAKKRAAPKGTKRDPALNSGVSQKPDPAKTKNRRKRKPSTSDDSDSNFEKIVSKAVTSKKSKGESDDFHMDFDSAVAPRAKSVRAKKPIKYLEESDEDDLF

Take `COC1=C(Br)[C@H](O)[C@](O)(CC#N)C=C1Br` [Apl-1, aeroplysinin-1]: the IC50 (in general, the concentration that gives 50% inhibition) at topo IIα amounted to 1370 nM. Also, at Hsp90, the shift in melting temperature (ΔTm) (commonly the change in melting temperature against a reference sample) at 2950 µM stood at 46.4 ± 7.4 °C.
